From ChEMBL document CHEMBL1130526, “Amide surrogates of matrix metalloproteinase inhibitors: Urea and sulfonamide mimics” (Bioorg Med Chem Lett, 1997)

Legend:
Stromelysin-1 [1] = molecular target: T1, Stromelysin-1 (Homo sapiens, UniProt P08254); experiment: Inhibition of Matrix metalloprotease-3 (MMP-3)
Target sequence in this assay (P08254 whole entry): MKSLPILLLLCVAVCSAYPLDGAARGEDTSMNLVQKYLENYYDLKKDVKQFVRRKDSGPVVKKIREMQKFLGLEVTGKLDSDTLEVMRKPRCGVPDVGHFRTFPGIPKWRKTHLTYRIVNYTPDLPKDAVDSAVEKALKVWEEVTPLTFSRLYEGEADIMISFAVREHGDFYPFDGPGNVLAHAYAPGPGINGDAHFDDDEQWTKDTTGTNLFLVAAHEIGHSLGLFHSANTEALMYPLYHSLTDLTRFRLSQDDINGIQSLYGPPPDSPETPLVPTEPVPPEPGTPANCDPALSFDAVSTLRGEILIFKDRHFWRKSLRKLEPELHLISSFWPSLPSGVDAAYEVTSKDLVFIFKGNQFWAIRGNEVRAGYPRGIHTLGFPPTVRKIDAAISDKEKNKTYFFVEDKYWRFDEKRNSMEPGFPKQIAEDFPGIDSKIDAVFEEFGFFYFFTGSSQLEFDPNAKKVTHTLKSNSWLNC

[2] = molecular target: Matrix metalloproteinase-9 (Homo sapiens, UniProt P14780); experiment: Inhibition of Matrix metalloprotease-9
[3] = molecular target: 72 kDa type IV collagenase (Homo sapiens, UniProt P08253); experiment: Inhibition of Matrix metalloprotease-2 (MMP-2)
Sequence of 72 kDa type IV collagenase (P08253 whole entry): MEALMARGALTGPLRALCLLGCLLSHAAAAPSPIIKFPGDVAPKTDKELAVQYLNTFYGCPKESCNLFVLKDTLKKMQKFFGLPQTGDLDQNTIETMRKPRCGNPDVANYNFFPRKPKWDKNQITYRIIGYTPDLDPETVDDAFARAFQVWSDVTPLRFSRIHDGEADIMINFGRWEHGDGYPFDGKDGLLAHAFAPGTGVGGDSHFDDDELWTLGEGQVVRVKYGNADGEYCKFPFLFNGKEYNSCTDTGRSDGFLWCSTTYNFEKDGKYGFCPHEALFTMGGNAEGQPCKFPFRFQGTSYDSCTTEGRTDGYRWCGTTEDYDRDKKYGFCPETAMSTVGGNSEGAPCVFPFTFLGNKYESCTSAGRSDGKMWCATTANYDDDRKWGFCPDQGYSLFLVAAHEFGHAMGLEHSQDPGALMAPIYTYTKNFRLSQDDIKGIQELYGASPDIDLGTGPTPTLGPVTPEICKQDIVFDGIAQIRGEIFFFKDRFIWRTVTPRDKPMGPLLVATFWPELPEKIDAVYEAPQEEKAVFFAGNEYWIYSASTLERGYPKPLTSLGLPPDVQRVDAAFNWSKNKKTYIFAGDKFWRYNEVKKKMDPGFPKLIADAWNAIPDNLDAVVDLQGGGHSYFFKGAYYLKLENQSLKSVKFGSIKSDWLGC

Interstitial collagenase = molecular target: T2, Interstitial collagenase (Homo sapiens, UniProt P03956); experiment: Inhibition of Matrix metalloprotease-1 (MMP-1)
T2 sequence (P03956 whole entry): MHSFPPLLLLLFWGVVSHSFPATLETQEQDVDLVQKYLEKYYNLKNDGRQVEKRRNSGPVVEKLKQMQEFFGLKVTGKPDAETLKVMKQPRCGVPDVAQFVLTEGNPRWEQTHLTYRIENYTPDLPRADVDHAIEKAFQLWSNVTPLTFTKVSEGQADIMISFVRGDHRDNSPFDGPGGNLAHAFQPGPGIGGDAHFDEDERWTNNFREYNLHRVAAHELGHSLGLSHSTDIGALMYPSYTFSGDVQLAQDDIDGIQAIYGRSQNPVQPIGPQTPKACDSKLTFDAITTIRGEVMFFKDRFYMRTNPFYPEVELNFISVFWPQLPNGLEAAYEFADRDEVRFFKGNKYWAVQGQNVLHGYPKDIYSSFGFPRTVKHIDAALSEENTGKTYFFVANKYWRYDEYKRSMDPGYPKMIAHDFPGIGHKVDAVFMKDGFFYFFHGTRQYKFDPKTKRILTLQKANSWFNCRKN

Stromelysin-1 [4] = molecular target: T1, Stromelysin-1; experiment: Inhibition of Matrix metalloprotease-3 (MMP-3) at 50 uM
Target sequence in this assay (P08254 100-477 limits assumed): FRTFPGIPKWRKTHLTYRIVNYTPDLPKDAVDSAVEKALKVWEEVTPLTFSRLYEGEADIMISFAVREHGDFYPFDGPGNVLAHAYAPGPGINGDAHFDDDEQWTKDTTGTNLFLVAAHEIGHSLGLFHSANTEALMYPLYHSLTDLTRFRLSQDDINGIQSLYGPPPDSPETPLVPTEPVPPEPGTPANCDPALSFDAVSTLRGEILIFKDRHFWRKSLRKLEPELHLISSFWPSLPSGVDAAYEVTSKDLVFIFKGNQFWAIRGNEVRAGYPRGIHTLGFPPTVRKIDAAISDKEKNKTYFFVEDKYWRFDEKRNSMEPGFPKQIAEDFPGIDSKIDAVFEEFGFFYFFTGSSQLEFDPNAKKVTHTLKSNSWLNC

Sequence of Matrix metalloproteinase-9 (P14780 whole entry): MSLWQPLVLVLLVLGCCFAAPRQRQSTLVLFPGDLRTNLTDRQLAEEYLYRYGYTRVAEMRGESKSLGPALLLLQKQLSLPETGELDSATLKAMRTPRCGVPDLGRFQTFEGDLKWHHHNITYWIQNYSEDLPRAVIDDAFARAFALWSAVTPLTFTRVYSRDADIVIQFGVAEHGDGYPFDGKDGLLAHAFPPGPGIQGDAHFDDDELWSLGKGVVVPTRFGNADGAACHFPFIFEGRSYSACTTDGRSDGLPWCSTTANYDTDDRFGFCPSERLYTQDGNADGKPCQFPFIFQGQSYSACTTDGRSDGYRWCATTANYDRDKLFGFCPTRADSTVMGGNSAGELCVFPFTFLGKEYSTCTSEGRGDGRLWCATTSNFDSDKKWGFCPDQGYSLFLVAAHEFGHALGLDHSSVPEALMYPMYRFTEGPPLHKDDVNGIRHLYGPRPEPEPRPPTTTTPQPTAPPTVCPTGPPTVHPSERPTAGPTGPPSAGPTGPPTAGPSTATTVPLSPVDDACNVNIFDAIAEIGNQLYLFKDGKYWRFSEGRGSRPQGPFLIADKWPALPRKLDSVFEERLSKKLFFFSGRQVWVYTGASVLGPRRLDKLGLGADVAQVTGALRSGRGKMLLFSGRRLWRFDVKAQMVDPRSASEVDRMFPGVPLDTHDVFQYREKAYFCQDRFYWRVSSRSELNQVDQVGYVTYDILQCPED

| SMILES | Ki (Stromelysin-1 [1]) [nM] | Ki [2] [nM] | Ki [3] [nM] | Ki (Interstitial collagenase) [nM] | inhibition (Stromelysin-1 [4]) [%] |
| --- | --- | --- | --- | --- | --- |
| CCCCCCC(CC(=O)NO)S(=O)(=O)N[C@@H](Cc1ccc(OC)cc1)C(=O)NC (stereo not given in full) | 4000 | 210 | 430 | 2300 | – |
| CNC(=O)[C@H](Cc1ccc(OC)cc1)NS(=O)(=O)C(CCc1ccccc1)CC(=O)O (stereo not given in full) | – | 9900 | 5300 | 22400 | 10 |
| CNC(=O)[C@H](Cc1ccc(OC)cc1)NS(=O)(=O)C(CCc1ccccc1)CC(=O)NO (stereo not given in full) | 2200 | 1500 | 550 | 640 | – |
| CNC(=O)[C@H](Cc1ccc(OC)cc1)NC(=O)[C@@H](CC(=O)NO)CC(C)C | < 10 | < 10 | – | – | – |
| CNC(=O)[C@H](Cc1ccc(OC)cc1)NS(=O)(=O)C(CC(=O)NO)CC(C)C (stereo not given in full) | 4100 | 620 | 620 | 770 | – |
| CNC(=O)[C@H](Cc1ccc(OC)cc1)NC(=O)[C@@H](CC(=O)O)CC(C)C | 29400 | 184 | 860 | 336 | – |
| CNC(=O)[C@H](Cc1ccc(OC)cc1)NS(=O)(=O)C(CC(=O)O)CC(C)C (stereo not given in full) | 19100 | 19200 | 3000 | > 50000 | – |
| CCCCCCC(CC(=O)O)S(=O)(=O)N[C@@H](Cc1ccc(OC)cc1)C(=O)NC (stereo not given in full) | – | 290 | 1300 | 11200 | 10 |
